Source: ChEMBL document CHEMBL5058641, “Data for DCP probe TP-050” (2022)

Key:
[1] = target: Sigma non-opioid intracellular receptor 1 (Homo sapiens) (UniProt Q99720); conditions: Compound concentration 10.0 uM
D(2) dopamine receptor = D(2) dopamine receptor (Homo sapiens, UniProt P14416); conditions: Compound concentration 10.0 uM
[2] = target: 5-hydroxytryptamine receptor 1E (Homo sapiens) (UniProt P28566); conditions: Compound concentration 10.0 uM
[3] = target: Sodium-dependent serotonin transporter (Homo sapiens, UniProt P31645); conditions: Compound concentration 10.0 uM
Chain of Sodium-dependent serotonin transporter (P31645 whole entry, looked up): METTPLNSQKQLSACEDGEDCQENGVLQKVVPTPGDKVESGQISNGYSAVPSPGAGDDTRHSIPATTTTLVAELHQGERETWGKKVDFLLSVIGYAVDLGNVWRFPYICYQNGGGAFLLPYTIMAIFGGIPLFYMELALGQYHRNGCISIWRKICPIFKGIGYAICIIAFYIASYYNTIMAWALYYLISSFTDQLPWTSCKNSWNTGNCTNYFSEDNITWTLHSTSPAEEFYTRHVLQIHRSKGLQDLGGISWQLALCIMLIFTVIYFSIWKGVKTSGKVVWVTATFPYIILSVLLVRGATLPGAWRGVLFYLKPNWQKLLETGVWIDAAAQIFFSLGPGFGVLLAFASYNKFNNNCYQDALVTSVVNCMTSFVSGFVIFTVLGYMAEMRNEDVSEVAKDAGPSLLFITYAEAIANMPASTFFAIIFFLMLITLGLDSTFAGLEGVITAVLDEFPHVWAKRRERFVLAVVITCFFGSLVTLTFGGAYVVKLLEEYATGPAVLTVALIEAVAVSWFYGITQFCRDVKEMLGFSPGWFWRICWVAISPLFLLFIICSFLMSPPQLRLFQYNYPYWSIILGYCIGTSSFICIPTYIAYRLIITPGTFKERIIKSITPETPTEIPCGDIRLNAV

[4] = target: T1, Sodium-dependent dopamine transporter (Homo sapiens, UniProt Q01959); conditions: Compound concentration 10.0 uM
T1 sequence (Q01959 whole entry): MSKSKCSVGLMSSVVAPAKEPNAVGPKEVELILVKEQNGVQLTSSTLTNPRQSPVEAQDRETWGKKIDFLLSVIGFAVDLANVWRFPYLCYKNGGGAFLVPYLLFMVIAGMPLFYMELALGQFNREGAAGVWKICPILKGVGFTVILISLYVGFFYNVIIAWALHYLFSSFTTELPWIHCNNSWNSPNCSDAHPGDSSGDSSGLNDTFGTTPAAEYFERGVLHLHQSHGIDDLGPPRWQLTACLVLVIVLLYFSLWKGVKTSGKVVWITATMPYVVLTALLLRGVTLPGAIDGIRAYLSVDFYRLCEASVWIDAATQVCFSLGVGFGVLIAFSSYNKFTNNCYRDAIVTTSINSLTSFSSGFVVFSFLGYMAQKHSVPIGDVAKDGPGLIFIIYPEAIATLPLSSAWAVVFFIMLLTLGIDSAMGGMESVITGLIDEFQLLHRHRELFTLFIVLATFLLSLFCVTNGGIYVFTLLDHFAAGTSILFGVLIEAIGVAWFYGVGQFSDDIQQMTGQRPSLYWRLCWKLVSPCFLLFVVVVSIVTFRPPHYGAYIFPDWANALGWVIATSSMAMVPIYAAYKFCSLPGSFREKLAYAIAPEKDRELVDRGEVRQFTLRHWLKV

[5] = target: Alpha-2A adrenergic receptor (Homo sapiens) (UniProt P08913); conditions: Compound concentration 10.0 uM
[6] = target: Beta-3 adrenergic receptor (Homo sapiens) (UniProt P13945); conditions: Compound concentration 10.0 uM
Chain of Beta-3 adrenergic receptor (Homo sapiens) (P13945 whole entry, looked up): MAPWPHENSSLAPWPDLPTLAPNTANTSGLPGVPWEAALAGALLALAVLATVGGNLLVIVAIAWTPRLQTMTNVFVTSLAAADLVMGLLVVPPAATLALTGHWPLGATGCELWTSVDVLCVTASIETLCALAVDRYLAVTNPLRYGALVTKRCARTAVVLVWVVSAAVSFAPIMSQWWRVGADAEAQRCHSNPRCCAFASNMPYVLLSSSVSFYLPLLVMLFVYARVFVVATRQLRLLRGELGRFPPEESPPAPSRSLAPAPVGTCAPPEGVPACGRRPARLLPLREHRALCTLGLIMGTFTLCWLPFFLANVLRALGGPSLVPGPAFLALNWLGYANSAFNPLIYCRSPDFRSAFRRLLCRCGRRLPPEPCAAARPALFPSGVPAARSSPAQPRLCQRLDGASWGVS

[7] = AMPA receptor scintillation proximity binding assay; design: species or system Homo sapiens
[8] = target: Beta-1 adrenergic receptor (Homo sapiens, UniProt P08588); conditions: Compound concentration 10.0 uM
[9] = target: D(4) dopamine receptor (Homo sapiens) (UniProt P21917); conditions: Compound concentration 10.0 uM
[10] = target: Delta-type opioid receptor (Homo sapiens, UniProt P41143); conditions: Compound concentration 10.0 uM
[11] = target: 5-hydroxytryptamine receptor 5A (Homo sapiens) (UniProt P47898); conditions: Compound concentration 10.0 uM
[12] = target: GABA-A receptor; anion channel (Rattus norvegicus) (UniProt O09028+P15431+P18506+P18508+P19969+P20236+P23574+P23576+P28471+P28473+P30191+P62813+P63079+P63138+Q91ZM7+Q9ES14); conditions: Compound concentration 10.0 uM
[13] = target: 5-hydroxytryptamine receptor 2C (Homo sapiens) (UniProt P28335); conditions: Compound concentration 10.0 uM
[14] = target: 5-hydroxytryptamine receptor 1D (Homo sapiens, UniProt P28221); conditions: Compound concentration 10.0 uM
[15] = target: 5-hydroxytryptamine receptor 1A (Homo sapiens) (UniProt P08908); conditions: Compound concentration 10.0 uM
Chain of 5-hydroxytryptamine receptor 1A (Homo sapiens) (P08908 whole entry): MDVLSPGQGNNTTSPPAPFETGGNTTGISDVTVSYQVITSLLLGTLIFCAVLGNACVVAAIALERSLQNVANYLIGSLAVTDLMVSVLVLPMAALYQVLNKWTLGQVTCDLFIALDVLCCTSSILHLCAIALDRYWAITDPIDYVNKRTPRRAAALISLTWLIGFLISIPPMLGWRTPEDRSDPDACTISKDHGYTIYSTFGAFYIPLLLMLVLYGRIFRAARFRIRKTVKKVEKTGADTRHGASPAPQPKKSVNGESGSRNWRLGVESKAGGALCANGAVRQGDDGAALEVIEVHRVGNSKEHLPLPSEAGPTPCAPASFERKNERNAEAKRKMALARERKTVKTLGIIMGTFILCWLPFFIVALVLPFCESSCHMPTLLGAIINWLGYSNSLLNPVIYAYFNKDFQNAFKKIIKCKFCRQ

[16] = target: 5-hydroxytryptamine receptor 6 (Homo sapiens) (UniProt P50406); conditions: Compound concentration 10.0 uM
D(1A) dopamine receptor = D(1A) dopamine receptor (Homo sapiens, UniProt P21728); conditions: Compound concentration 10.0 uM
[17] = target: 5-hydroxytryptamine receptor 1B (Homo sapiens, UniProt P28222); conditions: Compound concentration 10.0 uM
[18] = target: Alpha-2C adrenergic receptor (Homo sapiens) (UniProt P18825); conditions: Compound concentration 10.0 uM
Chain of Alpha-2C adrenergic receptor (Homo sapiens) (P18825 whole entry): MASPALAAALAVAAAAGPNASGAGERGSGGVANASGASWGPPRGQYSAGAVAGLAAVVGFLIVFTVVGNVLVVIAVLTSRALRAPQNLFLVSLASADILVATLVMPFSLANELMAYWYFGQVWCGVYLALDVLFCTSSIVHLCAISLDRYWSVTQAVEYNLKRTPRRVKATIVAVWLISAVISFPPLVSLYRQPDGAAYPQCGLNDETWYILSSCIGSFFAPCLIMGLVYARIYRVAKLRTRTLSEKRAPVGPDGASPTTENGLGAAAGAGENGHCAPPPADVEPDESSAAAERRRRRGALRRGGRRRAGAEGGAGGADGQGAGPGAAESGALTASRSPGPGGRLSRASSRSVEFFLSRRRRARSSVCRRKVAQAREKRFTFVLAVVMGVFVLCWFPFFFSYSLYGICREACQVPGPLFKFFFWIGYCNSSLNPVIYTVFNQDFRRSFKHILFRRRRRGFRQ

[19] = target: Muscarinic acetylcholine receptor M1 (Homo sapiens) (UniProt P11229); conditions: Compound concentration 10.0 uM
Chain of Muscarinic acetylcholine receptor M1 (Homo sapiens) (P11229 whole entry): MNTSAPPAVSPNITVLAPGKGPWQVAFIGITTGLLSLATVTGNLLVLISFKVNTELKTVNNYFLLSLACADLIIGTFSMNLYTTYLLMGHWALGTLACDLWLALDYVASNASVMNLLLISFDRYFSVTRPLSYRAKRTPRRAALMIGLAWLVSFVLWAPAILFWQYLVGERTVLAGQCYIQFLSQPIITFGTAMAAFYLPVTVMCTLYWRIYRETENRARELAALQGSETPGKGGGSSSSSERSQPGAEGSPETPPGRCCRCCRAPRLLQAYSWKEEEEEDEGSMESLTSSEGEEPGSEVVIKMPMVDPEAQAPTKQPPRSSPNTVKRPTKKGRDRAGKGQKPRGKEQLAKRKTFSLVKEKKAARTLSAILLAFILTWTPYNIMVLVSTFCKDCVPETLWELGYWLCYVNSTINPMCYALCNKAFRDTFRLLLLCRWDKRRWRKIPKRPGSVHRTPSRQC

[20] = target: Sigma intracellular receptor 2 (Homo sapiens) (UniProt Q5BJF2); conditions: Compound concentration 10.0 uM
[21] = target: 5-hydroxytryptamine receptor 2B (Homo sapiens, UniProt P41595); conditions: Compound concentration 10.0 uM
[22] = target: T1, Sodium-dependent dopamine transporter; experiment: GPCRScan assay: inhibition of DAT; design: radioligand conc. used [nm] 3.6 – 16.0, parental cells stable HEK
[23] = target: Histamine H4 receptor (Homo sapiens) (UniProt Q9H3N8); conditions: Compound concentration 10.0 uM
[24] = target: Glutamate receptor ionotropic, NMDA 2A (Homo sapiens, UniProt Q05586+Q12879); experiment: GluN2A-containing NMDA receptor (Ca2+ influx) assay (EC50)
[25] = target: 5-hydroxytryptamine receptor 2A (Homo sapiens, UniProt P28223); conditions: Compound concentration 10.0 uM
[26] = target: Alpha-1D adrenergic receptor (Homo sapiens) (UniProt P25100); conditions: Compound concentration 10.0 uM
[27] = target: D(3) dopamine receptor (Homo sapiens) (UniProt P35462); conditions: Compound concentration 10.0 uM
[28] = target: Alpha-2B adrenergic receptor (Homo sapiens) (UniProt P18089); conditions: Compound concentration 10.0 uM
Histamine H1 receptor = Histamine H1 receptor (Homo sapiens, UniProt P35367); conditions: Compound concentration 10.0 uM
[29] = target: Muscarinic acetylcholine receptor M4 (Homo sapiens) (UniProt P08173); conditions: Compound concentration 10.0 uM
Histamine H2 receptor = Histamine H2 receptor (Homo sapiens, UniProt P25021); conditions: Compound concentration 10.0 uM
[30] = target: Kappa-type opioid receptor (Homo sapiens, UniProt P41145); conditions: Compound concentration 10.0 uM
Chain of Kappa-type opioid receptor (P41145 whole entry): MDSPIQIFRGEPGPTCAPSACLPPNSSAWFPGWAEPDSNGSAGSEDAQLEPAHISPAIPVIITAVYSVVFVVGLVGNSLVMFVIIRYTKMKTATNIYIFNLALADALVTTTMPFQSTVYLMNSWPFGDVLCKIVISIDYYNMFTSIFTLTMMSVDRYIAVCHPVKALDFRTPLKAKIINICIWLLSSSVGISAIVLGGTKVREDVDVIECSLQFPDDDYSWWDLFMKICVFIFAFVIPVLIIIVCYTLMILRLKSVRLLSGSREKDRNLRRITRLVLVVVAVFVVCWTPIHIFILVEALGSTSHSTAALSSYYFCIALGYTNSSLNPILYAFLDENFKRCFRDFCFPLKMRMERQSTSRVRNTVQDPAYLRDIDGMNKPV

[31] = target: Histamine H3 receptor (Homo sapiens) (UniProt Q9Y5N1); conditions: Compound concentration 10.0 uM
[32] = target: 5-hydroxytryptamine receptor 3A (Homo sapiens) (UniProt P46098); conditions: Compound concentration 10.0 uM
Chain of 5-hydroxytryptamine receptor 3A (Homo sapiens) (P46098 whole entry): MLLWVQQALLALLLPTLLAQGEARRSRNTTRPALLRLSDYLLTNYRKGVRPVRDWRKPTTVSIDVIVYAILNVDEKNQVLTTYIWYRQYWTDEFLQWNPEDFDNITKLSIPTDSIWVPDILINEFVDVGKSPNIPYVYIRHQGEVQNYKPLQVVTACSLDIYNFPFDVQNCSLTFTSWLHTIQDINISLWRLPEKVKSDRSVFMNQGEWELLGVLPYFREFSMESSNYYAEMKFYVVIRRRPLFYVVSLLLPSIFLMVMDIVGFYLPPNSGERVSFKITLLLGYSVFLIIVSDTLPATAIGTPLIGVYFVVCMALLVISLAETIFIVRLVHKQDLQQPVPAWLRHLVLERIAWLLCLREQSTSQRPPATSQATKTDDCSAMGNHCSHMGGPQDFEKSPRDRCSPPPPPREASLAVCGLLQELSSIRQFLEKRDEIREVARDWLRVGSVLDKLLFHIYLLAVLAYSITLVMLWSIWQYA

Rattus norvegicus = species: Rattus norvegicus; conditions: Compound concentration 10.0 uM
[33] = target: Alpha-1B adrenergic receptor (Homo sapiens) (UniProt P35368); conditions: Compound concentration 10.0 uM
[34] = target: Sodium-dependent noradrenaline transporter (Homo sapiens, UniProt P23975); conditions: Compound concentration 10.0 uM
Mu-type opioid receptor = Mu-type opioid receptor (Homo sapiens, UniProt P35372); conditions: Compound concentration 10.0 uM
Chain of Mu-type opioid receptor (P35372 whole entry): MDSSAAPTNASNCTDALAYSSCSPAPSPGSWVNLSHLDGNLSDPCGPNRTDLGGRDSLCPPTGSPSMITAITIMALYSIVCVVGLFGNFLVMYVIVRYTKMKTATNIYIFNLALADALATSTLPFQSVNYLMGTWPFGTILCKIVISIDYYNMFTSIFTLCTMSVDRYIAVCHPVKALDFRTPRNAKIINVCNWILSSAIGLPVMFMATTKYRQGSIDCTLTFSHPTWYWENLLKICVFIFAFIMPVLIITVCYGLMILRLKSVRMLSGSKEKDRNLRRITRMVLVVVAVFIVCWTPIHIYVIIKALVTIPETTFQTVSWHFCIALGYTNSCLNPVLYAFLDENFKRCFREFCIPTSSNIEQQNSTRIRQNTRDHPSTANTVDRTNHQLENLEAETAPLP

Chain of D(2) dopamine receptor (P14416 whole entry): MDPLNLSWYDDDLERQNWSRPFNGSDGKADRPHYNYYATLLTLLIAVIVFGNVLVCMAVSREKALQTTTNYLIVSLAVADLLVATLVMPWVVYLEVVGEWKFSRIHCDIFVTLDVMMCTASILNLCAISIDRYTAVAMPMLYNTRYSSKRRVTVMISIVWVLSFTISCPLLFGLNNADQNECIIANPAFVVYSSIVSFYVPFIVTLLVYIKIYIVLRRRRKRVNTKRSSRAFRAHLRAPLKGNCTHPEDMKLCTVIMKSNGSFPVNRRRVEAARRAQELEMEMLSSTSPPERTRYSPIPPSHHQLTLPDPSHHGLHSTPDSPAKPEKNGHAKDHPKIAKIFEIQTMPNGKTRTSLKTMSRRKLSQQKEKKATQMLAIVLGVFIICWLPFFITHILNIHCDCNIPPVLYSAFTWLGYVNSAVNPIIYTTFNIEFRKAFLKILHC
Chain of Sigma non-opioid intracellular receptor 1 (Homo sapiens) (Q99720 whole entry): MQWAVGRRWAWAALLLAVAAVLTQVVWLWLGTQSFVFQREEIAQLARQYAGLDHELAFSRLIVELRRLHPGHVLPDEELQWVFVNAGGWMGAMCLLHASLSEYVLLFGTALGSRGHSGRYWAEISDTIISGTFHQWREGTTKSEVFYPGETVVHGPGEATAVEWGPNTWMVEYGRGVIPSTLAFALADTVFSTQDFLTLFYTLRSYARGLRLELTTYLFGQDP

`Cc1cn([C@@H](C)CC#N)c(=O)c2cc(Cn3nc(C(F)F)cc3Cl)nn12` gave an inhibition [1] of 33.4%, an inhibition (D(2) dopamine receptor) of 5.88% and an inhibition [2] of 3.73%. For the same molecule, the inhibition [3] was 0.68%, the inhibition [4] was 57.6% and the inhibition [5] was 19%. The inhibition [6] was -5.75%, the IC50 [7] was > 30 µM (not active) and the inhibition [8] was -0.27%. It also gave an inhibition [9] of -5.71%, an inhibition [10] of -8.09% and an inhibition [11] of -7.46%. The inhibition [12] was 1.81%, the inhibition [13] was -9.2% and the inhibition [14] was 15.5%. The inhibition [15] was -6.45%, the inhibition [16] was -6.08% and the inhibition (D(1A) dopamine receptor) was -0.9%. The inhibition [17] was 27.7%, the inhibition [18] was -9.92% and the inhibition [19] was -8.98%. The inhibition [20] was 15.8%, the inhibition [21] was 12% and the pKi [22] was < 5. The Ki ([22]; read-out: Ki) was > 10 µM, the inhibition [23] was 20.4% and the EC50 [24] was > 30 µM (not active). The inhibition [25] was -9.06%, the inhibition [26] was -4.44% and the inhibition [27] was 4.06%. The inhibition [28] was 1.85%, the inhibition (Histamine H1 receptor) was -2.74% and the inhibition [29] was -0.32%. It also gave an inhibition (Histamine H2 receptor) of 7.11%, an inhibition [30] of 22.6% and an inhibition [31] of -5.14%. The inhibition [32] was -1.27%, the inhibition (Rattus norvegicus) was 21.3% and the inhibition [33] was 1.49%. It also gave an inhibition [34] of -2.17% and an inhibition (Mu-type opioid receptor) of -0.1%.
